Results on 3 compounds are retold here after PMC6968511 (Journal of Enzyme Inhibition and Medicinal Chemistry, 2019).

A short description of one data set: Solubility in water. The class given is physicochemical.
The next data set is described as follows: MTT cytotoxicity assay. The class given is cell-based, human. To be noted: human, HCEC (human corneal epithelial) cells. On the technique in general: Tetrazolium dyes change colour on reduction, which living cells bring about.
Data set [1] relates to HCEC (human corneal epithelial cell). As to the kind of experiment: MTT cytotoxicity assay. To be noted: MTT, tested up to 100 μM (data not shown). The class given is cell-based.
Data set [2] deals with HepG2 (human liver carcinoma). Description: MTT cytotoxicity assay. It is filed as cell-based. The following applies: tested up to 100 μM (data not shown).
The test system of data set [3] is HT-29 (human colorectral cancer). Description: MTT cytotoxicity assay. The class given is cell-based. To be noted: tested up to 100 μM (data not shown).
Data set [4] has as its system H9C2 (normal, rat myocytes). Description: MTT cytotoxicity assay. It is filed as cell-based. To be noted: tested up to 100 μM (data not shown).
The subject of the next data set is hypertensive rabbits. Description: Hypertensive rabbit IOP lowering study. It is filed as in vivo. The following applies: topical.
The mark [5] stands for this setting: one drop (50 μL) of 1% solution (BRZ 1% suspension).

Broadly, the viability is a read-out of living cells in per cent, often relative to untreated cells. A low value points to a greater loss of cells. Consider `CC(=O)Nc1nnc(S(N)(=O)=O)s1` [AAZ, acetazolamide], for which, in “Solubility in water”, the Solubility is listed as 0.21%. In “MTT cytotoxicity assay”, this compound showed a viability at 96 h, 1 % of 80% and a viability at 96 h, 2 % of 10%. Also, the “toxicity to HCEC cells” value in data set [1] is “did not display any appreciable toxicity”. Also, the “toxicity to HepG2 cells” value in data set [2] was “did not display any appreciable toxicity”. For the same compound, the “toxicity to HT-29 cells” value in data set [3] was “did not display any appreciable toxicity”. In addition, the “toxicity to H9C2 cells” value in data set [4] is given as “did not display any appreciable toxicity”.

Turning to `CCN[C@H]1C[C@H](C)S(=O)(=O)c2sc(S(N)(=O)=O)cc21` [DZA, dorzolamide], the Solubility in the data set “Solubility in water” is on record as 0.67%.

As for `CCN[C@H]1CN(CCCOC)S(=O)(=O)c2sc(S(N)(=O)=O)cc21` [BRZ, brinzolamide], in the data set “Solubility in water”, the Solubility was 0.05%. For the same compound, the “return to basal IOP values” in the data set with hypertensive rabbits (1% suspension) turned out to be 3 h. In the data set on hypertensive rabbits (setting [5]), the “maximal IOP lowering” value is on record as “around 5 mm Hg” and the “time of maximal IOP lowering effect post-administration” value was determined as 1 h. Also, the viability at 96 h, 1 % in the data set “MTT cytotoxicity assay” came to 40%. The “toxicity to HCEC cells” value in data set [1] is “did not display any appreciable toxicity”. Also, the “toxicity to HepG2 cells” value in data set [2] is “did not display any appreciable toxicity”. The “toxicity to HT-29 cells” value in data set [3] is listed as “did not display any appreciable toxicity”. Moreover, the “toxicity to H9C2 cells” value in data set [4] is recorded as “did not display any appreciable toxicity”.
